Measured values as given in publication PMC3777854 (Journal of clinical pharmacology, 2013).
“Also recorded” adds a separate entry of the source. Marks after values point to notes of the source that are not given here. Square brackets hold non-standard residues; d marks the D form. Peptide text beside a SMILES is read from it. * marks the point of attachment. Dolaproine = CO[C@@H]([C@@H]1CCCN1)[C@@H](C)C(=O)O; Dil = CC[C@H](C)[C@H](NC)[C@@H](CC(=O)O)OC; X1 = C[C@@H](N*)[C@@H](O)c1ccccc1; NMeV = CN[C@H](C(=O)O)C(C)C

Legend:
[1] = tested on: CYP3A; experiment: Effect of rifampin on brentuximab vedotin; assay type: in vivo, human; conditions: for MMAE Tmax: median (range)
[2] = tested on: CYP3A; experiment: Effect of ketoconazole on brentuximab vedotin; assay type: in vivo, human; conditions: for MMAE Tmax: median (range); for MMAE Tmax / MMAE Cmax: n=16
[3] = Excretion of MMAE in urine and feces; assay type: in vivo, human
[4] = on a mass basis; cited from earlier work
[5] = tested on: CYP3A; conditions: not of this paper; cited from earlier work
[6] = tested on: CYP3A; experiment: Effect of brentuximab vedotin on midazolam PK; conditions: brentuximab vedotin 1.8 mg/kg; midazolam as probe substrate

CC[C@H](C)[C@@H]([C@@H](CC(=O)N1CCC[C@H]1[C@H](OC)[C@@H](C)C(=O)N[C@H](C)[C@@H](O)c1ccccc1)OC)N(C)C(=O)[C@@H](NC(=O)[C@@H](NC)C(C)C)C(C)C [MMAE, monomethyl auristatin E] (H-[NMeV]V[Dil][Dolaproine]-X1)
MMAE AUC0-∞ ([1]; brentuximab vedotin 1.8 mg/kg IV alone, plasma, geometric mean (%CV), n=14): 40.06 (53) d·ng/mL
MMAE t1/2 ([1]; brentuximab vedotin 1.8 mg/kg alone, geometric mean (%CV), n=14): 3.71 (19) d
MMAE Tmax ([1]; brentuximab vedotin 1.8 mg/kg alone, n=14): 3.00 (0.99, 5.01) ^a d
MMAE Cmax ([1]; brentuximab vedotin 1.8 mg/kg alone, plasma, geometric mean (%CV), n=14): 4.98 (67) ng/mL
MMAE exposures lower when rifampin was coadministered ([1]; brentuximab vedotin 1.8 mg/kg with rifampin vs alone): ~ 46%
MMAE t1/2 ([1]; brentuximab vedotin 1.8 mg/kg with rifampin, geometric mean (%CV), n=14): 3.66 (17) d
MMAE Tmax ([1]; brentuximab vedotin 1.8 mg/kg with rifampin, n=14): 1.49 (0.33, 4.02) ^a d
MMAE Cmax ([1]; brentuximab vedotin 1.8 mg/kg with rifampin, plasma, geometric mean (%CV), n=14): 2.80 (36) ng/mL
MMAE AUC0-∞ ([2]; brentuximab vedotin 1.2 mg/kg IV alone, plasma, geometric mean (%CV), n=14): 26.65 (71) d·ng/mL
MMAE t1/2 ([2]; brentuximab vedotin 1.2 mg/kg alone, geometric mean (%CV), n=14): 3.06 (13) d
MMAE Tmax ([2]; brentuximab vedotin 1.2 mg/kg alone): 1.97 (0.97, 6.99) ^a d
MMAE Cmax ([2]; brentuximab vedotin 1.2 mg/kg alone, plasma, geometric mean (%CV)): 4.11 (71) ng/mL
MMAE exposures higher when ketoconazole was coadministered ([2]; brentuximab vedotin 1.2 mg/kg with ketoconazole vs alone): ~ 34%
MMAE t1/2 ([2]; brentuximab vedotin 1.2 mg/kg with ketoconazole, geometric mean (%CV), n=14): 3.47 (66) d
MMAE Tmax ([2]; brentuximab vedotin 1.2 mg/kg with ketoconazole): 2.45 (0.22, 4.06) ^a d
MMAE Cmax ([2]; brentuximab vedotin 1.2 mg/kg with ketoconazole, plasma, geometric mean (%CV)): 5.13 (114) ng/mL
potential increase of MMAE AUC0-∞ by coadministration of ketoconazole ([2]; in Cycle 1, exploratory analysis of the period effect): ~ 73%
expected increase in MMAE levels with ketoconazole ([2]; later cycles, relative to Cycle 1 MMAE levels without ketoconazole): ≤ 38%
number of MMAE metabolites detected in urine and feces ([3]; after concentrating the liquid-liquid extracts ten-fold, LC-MS/MS): 8
concentration of MMAE in excreta relative to its metabolites ([3]; estimate, metabolites only detected upon 10-fold concentration): at least 10 fold
MMAE recovered in urine and feces ([3]; of MMAE received during a brentuximab vedotin 1.8 mg/kg infusion, over a 1-week period, n=8): ~ 23.5%
percentage of recovered MMAE excreted in feces, median ([3]; over 1 week after brentuximab vedotin 1.8 mg/kg, remainder in urine): 72%
MMAE exposures lower than those of the ADC [4]: ~ 2000 fold
CYP3A induction (in vitro studies) [5]: does not induce CYP3A
inhibition or induction of CYP3A in humans (conclusion) [6]: neither inhibitors nor inducers of CYP3A; also recorded: neither an inhibitor nor inducer of CYP3A
